Measured values from BigSolDB 2.1.

O=C(O)COc1ccc2ccccc2c1
solubility (mole fraction)
Conditions	278.15 K	283.15 K	288.15 K	293.15 K	298.15 K	303.15 K	308.15 K	313.15 K	318.15 K	323.15 K
in acetone	0.038	0.0427	0.0481	0.0543	0.0613	0.0693	0.0785	0.089	0.101	0.115
in acetonitrile	0.00475	0.00574	0.00695	0.0084	0.0101	0.0123	0.0148	0.0178	0.0214	0.0258
in ethanol	0.0128	0.0152	0.0181	0.0217	0.0261	0.0315	0.0383	0.0469	0.0582	0.0728
in ethyl acetate	0.0145	0.0167	0.0192	0.0221	0.0255	0.0294	0.034	0.0393	0.0455	0.0527
in isobutanol	0.00557	0.00685	0.00854	0.0106	0.0132	0.0165	0.0208	0.0262	0.0333	0.0422
in isopropanol	0.00742	0.00922	0.0115	0.0144	0.0171	0.0217	0.0262	0.03	0.0359	0.0407
in isopropyl acetate	0.0105	0.0121	0.014	0.0162	0.0187	0.0216	0.025	0.029	0.0336	0.039
in methanol	0.0132	0.0157	0.0188	0.0227	0.0276	0.0339	0.0415	0.052	0.0656	0.0846
in methyl acetate	0.0156	0.0181	0.021	0.0243	0.0283	0.0329	0.0382	0.0445	0.0517	0.0602
in n-pentanol	0.0114	0.0137	0.0164	0.019	0.0242	0.0294	0.0362	0.0433	0.0526	0.0691
in n-propanol	0.0101	0.012	0.0146	0.0178	0.0214	0.0273	0.0324	0.04	0.0506	0.0635
in n-propyl acetate	0.0123	0.0142	0.0164	0.0189	0.0219	0.0253	0.0293	0.0339	0.0393	0.0454
